Test results published in US20250295674A1, “NEUROACTIVE STEROIDS FOR TREATMENT OF CNS-RELATED DISORDERS” (Sage Therapeutics, Inc., priority 2022, published 2025).

Assays:
[1] = tested on: patients with MDD or PPD; conditions: cited from earlier work
[2] = tested on: adults with MDD; experiment: Phase 3 CORAL study: treatment-emergent adverse events (safety set); assay type: in vivo, human; conditions: 50 mg once daily 14 days co-initiated with ADT
Description: This was a randomized, double-blind, parallel-group, placebo-controlled study in adults with MDD. The diagnosis of MDD was made according to Structured Clinical Interview for Diagnostic and Statistical Manual of Mental Disorders, Fifth Edition (DSM-5) Clinical Trial Version (SCID 5-CT) performed by a qualified healthcare professional.
Participants were randomized to receive blinded Compound (1) 50 mg or placebo for administration each evening from Days 1 through 14. In addition, all participants received 1 of 2 classes of ADTs: a selective serotonin reuptake inhibitor (SSRI; sertraline, escitalopram, citalopram) or a serotonin-norepinephrine reuptake inhibitor (SNRI; duloxetine or desvenlafaxine) in an open-label manner from Day 1 through the end of the study. The ADT was administered per labeled prescribing information. The investigator assigned 1 of the 5 ADTs based on clinical standard of care; the participant must not have had been previously treated with the assigned ADT within the current depressive episode and must not have had taken any ADT within 30 days prior to Day 1 (or taken fluoxetine within 60 days prior to Day 1). Randomization was stratified by ADT class (SSRI or SNRI). […]

[3] = tested on: adults with MDD; conditions: responders to first 14-day course of 50 mg who continued beyond Day 28; up to 1 year follow-up; cited from earlier work
[4] = tested on: patients with major depressive disorder (MDD); conditions: TEAEs: nausea/vomiting, diarrhoea, abdominal pain, dyspepsia, anorexia, dry mouth; cited from earlier work

| Structure (SMILES) | onset of effect on depressive symptoms ([1]; 50 mg vs placebo, patients with MDD or PPD) | minimally effective dose ([1]; previous Compound (1) studies in MDD) | tolerability (in words) [2] | patients who received a total of 1 or 2 treatment courses [3] | tolerability on the gastrointestinal tract among antidepressants (in words) [4] |
| --- | --- | --- | --- | --- | --- |
| C[C@@]1(O)CC[C@H]2[C@H](CC[C@@H]3[C@@H]2CC[C@]2(C)[C@@H](C(=O)Cn4cc(C#N)cn4)CC[C@@H]32)C1 [Compound (1), 1-(2-((3R,5R,8R,9R,10S,13S,14S,17S)-3-hydroxy-3,13-dimethylhexadecahydro-1H-cyclopenta[a]phenanthren-17-yl)-2-oxoethyl)-1H-pyrazole-4-carbonitrile] | Day 2 or 3 | 30 mg | generally-well tolerated | approximately 80% |  |
| CN(C)CCC[C@@]1(c2ccc(F)cc2)OCc2cc(C#N)ccc21 [escitalopram] |  |  |  |  | least tolerated |
| CN[C@H]1CC[C@@H](c2ccc(Cl)c(Cl)c2)c2ccccc21 [sertraline] |  |  |  |  | least tolerated |
